# In US20230130103A1, “TARGETED PHARMACOLOGICAL THERAPEUTICS IN UVEAL MELANOMA” (Washington University, priority 2017, published 2023):
# Starred links: 1 amine or outer side, 2 acyl side, 3 side chain; linkers in the order of their positions; H or OH if unused. Positions of bridges follow the written chain, without caps; N, C: chain ends. Non-standard residues stand in square brackets, D forms with d. Residues, ends and D or L forms follow the SMILES beside them. *: point of attachment. Leu(3R-OH,Nα-propionyl) = CCC(=O)N[C@H](C(=O)*)[C@H](O)C(C)C; X1 = CC(C)[C@@H](O[*:3])[C@H](N[*:1])C(=O)[*:2]; X2 = CC(C)[C@H](O[*:3])[C@@H](N[*:1])C(=O)[*:2]; NMeaThr = CN[C@H](C(=O)O)[C@H](C)O; dPhLac = O=C(O)[C@H](O)Cc1ccccc1; NMeA = CN[C@@H](C)C(=O)O; NMeDha = C=C(NC)C(=O)O
# Tested on: 92.1 UM cells
# Assay: Gene Set Enrichment Analysis (GSEA) of RNA-Seq data
# Format: cell-based, Human
# [1] = gene set REACTOME_ADAPTIVE_IMMUNE_SYSTEM
# [2] = gene set REACTOME_APC_C_CDC20_MEDIATED_DEGRADATION_OF_MITOTIC_PROTEINS
# [3] = gene set REACTOME_APC_C_CDH1_MEDIATED_DEGRADATION_OF_CDC20_AND_OTHER_APC_C_CDH1_TARGETED_PROTEINS_IN_LATE_MITOSIS_EARLY_G1
# [4] = gene set REACTOME_B[?]_INFECTION
# [5] = gene set REACTOME_CHOLESTEROL_BIOSYNTHESIS
# [6] = gene set REACTOME_DOUBLE_STRAND_BREAK_REPAIR
# [7] = gene set REACTOME_E2F_MEDIATED_REGULATION_OF_DNA_REPLICATION
# [8] = gene set REACTOME_EXTENSION_OF_TELOMERES
# [9] = gene set REACTOME_FACTORS_INVOLVED_IN_MEGAKARYOCYTE_DEVELOPMENT_AND_PLATELET_PRODUCTION
# [10] = gene set REACTOME_G0_AND_EARLY_G1
# [11] = gene set REACTOME_HOST_INTERACTIONS_HIV_FACTORS
# [12] = gene set REACTOME_LICAM_INTERACTIONS
# [13] = gene set REACTOME_METABOLISM_OF_NON_CODING_RNA
# [14] = gene set REACTOME_PREFOLDIN_MEDIATED_TRANSFER_OF_SUBSTRATE_TO_CCT_TRIC
# [15] = gene set REACTOME_TRANSPORT_OF_MATURE_MRNA_DERIVED_FROM_AN_INTRONLESS_TRANSCRIPT
# [16] = gene set REACTOME_[?]_REMOVAL_FROM_CHROMATIN
# [17] = gene set REACTOM_GLUCONE_TRANSPORT
# [18] = gene set RMEIN_GLUCOCORTICOID_THERAPY_DN
# [19] = gene set SAKAL_CHRONIC_HEPATITIS_VS_LIVER_CANCER_UP
# [20] = gene set SASAKI_ADULT_T_CELL_LEUKEMIA
# [21] = gene set SASSON_RESPONSE_TO_FORSKOLIN_UP
# [22] = gene set SASSON_RESPONSE_TO_GONADOTRPHINS_UP
# [23] = gene set SCHMIDT_FOR_TARGETS_IN_LIMB_BUD_UP
# [24] = gene set SCIBETTA_KDMS8_TARGETS_DN
# [25] = gene set SENESE_HDAC1_TARGETS_UP
# [26] = gene set SENESE_HDAC2_TARGETS_UP
# [27] = gene set SHEPARD_CRUSH_AND_BURN_MUTANT_DN
# [28] = gene set SMIRNOV_RESPONSE_TO_IR_6HR_DN
# [29] = gene set WAKASUGI_HAVE_ZNF143_BINDING_SITES
# [30] = gene set WELSCH_BRCA1_TARGETS_DN
# [31] = gene set WHITFIELD_CELL_CYCLE_5
# [32] = gene set WHITFIELD_CELL_CYCLE_M_G2
# [33] = gene set [?]_APOPTOSIS_BY_REOVIRUS_INFECTION_DN
# [34] = gene set [?]_E2F3_ONCOGENIC_SIGNATURE
# [35] = gene set [?]_ESTRADIOL_RESPONSE_6HR_UP
# [36] = gene set [?]_HYPOXIA_NOT_VIA_[?]
# [37] = gene set [?]_OVARIAN_CANCER_INVAVSIVE_VS_LMP_UP
# [38] = gene set [?]_PSEUDOPODIA_HAPTOTAXIS_DN
# [39] = gene set […]_NEUTROPHIL_AT_SKIN_WOUND_DN
# [40] = gene set mARTORIATE_MDM4_TARGETS_FETAL_LIVER_DN
compound,measurement,setting,value
"C=C1C(=O)N[C@@H](C)C(=O)N(C)[C@@H](C)C(=O)N[C@H]([C@@H](OC(=O)[C@@H](NC(=O)CC)[C@H](O)C(C)C)C(C)C)C(=O)N(C)[C@@H]([C@H](C)OC)C(=O)O[C@H](C(C)C)[C@H](NC(C)=O)C(=O)O[C@H](Cc2ccccc2)C(=O)N1C [FR, [(1S)-1-[(3S,6R,9S,12S,18R,21S,22R)-21-acetamido-18-benzyl-3-[(1S)-1-methoxyethyl]-4,9,10,12,16-pentamethyl-15-methylidene-2,5,8,11,14,17,20-heptaoxo-22-propan-2-yl-1,19-dioxa-4,7,10,13,16-pentazacyclodocos-6-yl]-2-methylpropyl] (2S,3R)-3-hydroxy-4-methyl-2-(propanoylamino)pentanoate] (Ac-[X1][dPhLac][NMeDha]A[NMeA][X2](Leu(3R-OH,Nα-propionyl))[NMeaThr](Me); ester 1-C)",ES,[1],0.3979
same,NES,[1],2.13
same,ES,[2],0.5518
same,NES,[2],2.142
same,ES,[3],0.56
same,NES,[3],2.187
same,ES,[4],0.4639
same,NES,[4],2.188
same,ES,[5],0.6781
same,NES,[5],2.138
same,ES,gene set REACTOME_DNA_REPAIR,0.4835
same,NES,gene set REACTOME_DNA_REPAIR,2.1
same,ES,[6],0.6821
same,NES,[6],2.156
same,ES,[7],0.5585
same,NES,[7],2.256
same,ES,[8],0.6128
same,NES,[8],2.062
same,ES,[9],0.4943
same,NES,[9],2.346
same,ES,[10],0.5589
same,NES,[10],2.109
same,ES,[11],0.4871
same,NES,[11],2.139
same,ES,[12],0.4901
same,NES,[12],2.064
same,ES,[13],0.5725
same,NES,[13],2.142
same,ES,gene set REACTOME_NEP_NS2_INTERACTS_WITH_THE_CELLULAR_EXPORT_MACHINERY,0.6472
same,ES,[14],0.6276
same,NES,[14],2.059
same,ES,[15],0.6258
same,NES,[15],2.187
same,ES,[16],0.5346
same,NES,[16],2.104
same,ES,[17],0.6343
same,NES,[17],2.211
same,NES,gene set REN_ALVEOLAR_RHABDOMYOSARCOMA_DN,2.084
same,ES,[18],0.429
same,NES,[18],2.253
same,ES,[19],0.4953
same,NES,[19],2.051
same,ES,[20],0.4693
same,NES,[20],2.213
same,ES,[21],0.4936
same,NES,[21],2.087
same,ES,[22],0.5309
same,NES,[22],2.23
same,ES,[23],0.6919
same,NES,[23],2.232
same,ES,[24],0.4986
same,NES,[24],2.107
same,ES,[25],0.4141
same,NES,[25],2.222
same,ES,[26],0.4933
same,NES,[26],2.179
same,ES,gene set SHEPARD_BMYB_TARGETS,0.5123
same,NES,gene set SHEPARD_BMYB_TARGETS,2.125
same,ES,[27],0.4366
same,NES,[27],2.055
same,NES,gene set SHIPP_D[?]CL_VS_FOLLICULAR_LYMPHOMA_UP,2.142
same,ES,[28],0.4874
same,NES,[28],2.135
same,ES,gene set SP1_Q4_01,0.4346
same,NES,gene set SP1_Q4_01,2.133
same,ES,gene set TBK1DF_DN,0.434
same,NES,gene set TBK1DF_DN,2.201
same,ES,[29],0.5464
same,NES,[29],2.135
same,ES,[30],0.4808
same,NES,[30],2.25
same,ES,[31],0.4808
same,NES,[31],2.252
same,ES,[32],0.4742
same,NES,[32],2.151
same,ES,gene set WINTER_HYPOXIA_UP,0.5079
same,NES,gene set WINTER_HYPOXIA_UP,2.091
same,ES,gene set [?]ENPORAIN_17513976.21_2,0.5458
same,ES,[33],0.4088
same,NES,[33],2.137
same,ES,[34],0.4474
same,NES,[34],2.256
same,ES,[35],0.4279
same,NES,[35],2.138
same,ES,[36],0.3777
same,NES,[36],2.125
same,ES,[37],0.4908
same,NES,[37],2.191
same,ES,[38],0.396
same,NES,[38],2.222
same,ES,gene set [?]_[?]1,0.4368
same,NES,gene set [?]_[?]1,2.127
same,ES,gene set [?]_[?]_Q6,0.372
same,NES,gene set [?]_[?]_Q6,2.07
same,ES,[39],0.4325
same,NES,[39],2.066
same,ES,[40],0.4046
same,NES,[40],2.198
